pIC50: −log10 of the molar value.
Test system: 496974-208-R-J2-PDC complex spheroids, growth % test/control
Assay: Anticancer human tumor 496974-208-R-J2-PDC patient-derived pancreatic carcinoma cell line growth inhibition [CLK]
Settings: for pIC50: curve of first compound; for viability, T/C: stronger effect = lower value
How it was run: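 Patient-derived tumor cells grown as complex spheroids with HUVEC endothelial cells and mesenchymal stem cells, treated with drug combinations. Concentrations descend in half-log steps from near clinical Cmax, or from 10 microM if Cmax unknown.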

[1] = second compound 0.0316 µM, first compound 0.0316 µM
[2] = second compound 0.0316 µM, first compound 0.1 µM
[3] = second compound 0.0316 µM, first compound 0.316 µM
[4] = second compound 0.0316 µM, first compound 1 µM
[5] = second compound 0.0316 µM, first compound 3.16 µM
[6] = second compound 0.0316 µM, first compound 10 µM
[7] = second compound 0.1 µM, first compound 0.0316 µM
[8] = second compound 0.1 µM, first compound 0.1 µM
[9] = second compound 0.1 µM, first compound 0.316 µM
[10] = second compound 0.1 µM, first compound 1 µM
[11] = second compound 0.1 µM, first compound 3.16 µM
[12] = second compound 0.1 µM, first compound 10 µM
[13] = second compound 0.316 µM, first compound 0.0316 µM
[14] = second compound 0.316 µM, first compound 0.1 µM
[15] = second compound 0.316 µM, first compound 0.316 µM
[16] = second compound 0.316 µM, first compound 1 µM
[17] = second compound 0.316 µM, first compound 3.16 µM
[18] = second compound 0.316 µM, first compound 10 µM
[19] = second compound 1 µM, first compound 0.0316 µM
[20] = second compound 1 µM, first compound 0.1 µM
[21] = second compound 1 µM, first compound 0.316 µM
[22] = second compound 1 µM, first compound 1 µM
[23] = second compound 1 µM, first compound 3.16 µM
[24] = second compound 1 µM, first compound 10 µM
[25] = second compound 3.16 µM, first compound 0.0316 µM
[26] = second compound 3.16 µM, first compound 0.1 µM
[27] = second compound 3.16 µM, first compound 0.316 µM
[28] = second compound 3.16 µM, first compound 1 µM
[29] = second compound 3.16 µM, first compound 3.16 µM
[30] = second compound 3.16 µM, first compound 10 µM
[31] = second compound 10 µM, first compound 0.0316 µM
[32] = second compound 10 µM, first compound 0.1 µM
[33] = second compound 10 µM, first compound 0.316 µM
[34] = second compound 10 µM, first compound 1 µM
[35] = second compound 10 µM, first compound 3.16 µM
[36] = second compound 10 µM, first compound 10 µM
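Further: spheroids exposed to the drugs for 7 days before readout.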
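Wherever viability, T/C is given: 100% = DMSO vehicle control wells.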

**Q.** What does the source list for `Nc1ccn(C2OC(CO)C(O)C2(F)F)c(=O)n1` (centres undefined) + CN1CCN(c2cc(C(=O)Nc3cc4cc(-c5cnn(C)c5)ccc4cn3)ccn2)CC1?
**A.** pIC50 (second compound 0.0316 µM): 6.02; pIC50 (second compound 0.1 µM): 6.59; pIC50 (second compound 0.316 µM): > 7.50; pIC50 (second compound 1 µM): > 7.50; pIC50 (second compound 3.16 µM): > 7.50; pIC50 (second compound 10 µM): > 7.50; viability, T/C [1]: 90.8%; viability, T/C [2]: 76.9%; viability, T/C [3]: 62.3%; viability, T/C [4]: 44%; viability, T/C [5]: 48.2%; viability, T/C [6]: 50%; viability, T/C [7]: 76.3%; viability, T/C [8]: 57.8%; viability, T/C [9]: 50.3%; viability, T/C [10]: 40.6%; viability, T/C [11]: 38.6%; viability, T/C [12]: 38.5%; viability, T/C [13]: 5.11%; viability, T/C [14]: 5.63%; viability, T/C [15]: 6.71%; viability, T/C [16]: 5.91%; viability, T/C [17]: 5.91%; viability, T/C [18]: 4.9%; viability, T/C [19]: 0.42%; viability, T/C [20]: 0.5%; viability, T/C [21]: 1.35%; viability, T/C [22]: 0.4%; viability, T/C [23]: 2.61%; viability, T/C [24]: 0.41%; viability, T/C [25]: 0.53%; viability, T/C [26]: 0.7%; viability, T/C [27]: 0.57%; viability, T/C [28]: 0.47%; viability, T/C [29]: 0.44%; viability, T/C [30]: 1.78%; viability, T/C [31]: 0.28%; viability, T/C [32]: 1.23%; viability, T/C [33]: 1.72%; viability, T/C [34]: 0.25%; viability, T/C [35]: 2.65%; viability, T/C [36]: 0.29%

**Q.** How did the pIC50 (second compound 0.0316 µM) turn out when `O=C(c1cc(Cc2n[nH]c(=O)c3ccccc23)ccc1F)N1CCN(C(=O)C2CC2)CC1` + CN1CCN(c2cc(C(=O)Nc3cc4cc(-c5cnn(C)c5)ccc4cn3)ccn2)CC1 was run?
**A.** The pIC50 was under 5.00.

**Q.** And the pIC50 (second compound 0.1 µM)?
**A.** Its pIC50 is under 5.00.

**Q.** And the pIC50 (second compound 0.316 µM)?
**A.** Its pIC50 is over 7.50.

**Q.** What about the pIC50 (second compound 1 µM) of the same molecule?
**A.** Its pIC50 is over 7.50.

**Q.** What about the pIC50 (second compound 3.16 µM) of the same molecule?
**A.** Its pIC50 is over 7.50.

**Q.** What about the pIC50 (second compound 10 µM) of the same molecule?
**A.** The pIC50 was over 7.50.

**Q.** What about the viability, T/C [1] of the same molecule?
**A.** Its viability, T/C is 98.7%.

**Q.** And the viability, T/C [2]?
**A.** The viability, T/C was 96%.

**Q.** And the viability, T/C [3]?
**A.** The viability, T/C was 87.4%.

**Q.** And the viability, T/C [4]?
**A.** Its viability, T/C is 97.7%.

**Q.** What about the viability, T/C [5] of the same molecule?
**A.** Its viability, T/C is 88.3%.

**Q.** What about the viability, T/C [6] of the same molecule?
**A.** The viability, T/C was 88.2%.

**Q.** What about the viability, T/C [7] of the same molecule?
**A.** Its viability, T/C is 82.7%.

**Q.** And the viability, T/C [8]?
**A.** The viability, T/C was 76%.

**Q.** What about the viability, T/C [9] of the same molecule?
**A.** Its viability, T/C is 80.2%.

**Q.** What about the viability, T/C [10] of the same molecule?
**A.** Its viability, T/C is 79.4%.

**Q.** And the viability, T/C [11]?
**A.** Its viability, T/C is 83.2%.

**Q.** What about the viability, T/C [12] of the same molecule?
**A.** Its viability, T/C is 64.7%.

**Q.** What about the viability, T/C [13] of the same molecule?
**A.** Its viability, T/C is 5.96%.

**Q.** What about the viability, T/C [14] of the same molecule?
**A.** Its viability, T/C is 5.32%.

**Q.** And the viability, T/C [15]?
**A.** Its viability, T/C is 5.38%.

**Q.** What about the viability, T/C [16] of the same molecule?
**A.** Its viability, T/C is 6.21%.

**Q.** What about the viability, T/C [17] of the same molecule?
**A.** Its viability, T/C is 5.51%.

**Q.** What about the viability, T/C [18] of the same molecule?
**A.** The viability, T/C was 6.01%.

**Q.** And the viability, T/C [19]?
**A.** Its viability, T/C is 0.53%.

**Q.** And the viability, T/C [20]?
**A.** The viability, T/C was 0.75%.

**Q.** What about the viability, T/C [21] of the same molecule?
**A.** Its viability, T/C is 1.95%.

**Q.** What about the viability, T/C [22] of the same molecule?
**A.** The viability, T/C was 0.47%.

**Q.** What about the viability, T/C [23] of the same molecule?
**A.** Its viability, T/C is 1.71%.

**Q.** What about the viability, T/C [24] of the same molecule?
**A.** The viability, T/C was 1.78%.

**Q.** What about the viability, T/C [25] of the same molecule?
**A.** The viability, T/C was 0.81%.

**Q.** And the viability, T/C [26]?
**A.** Its viability, T/C is 0.43%.

**Q.** And the viability, T/C [27]?
**A.** Its viability, T/C is 0.55%.

**Q.** And the viability, T/C [28]?
**A.** Its viability, T/C is 0.48%.

**Q.** And the viability, T/C [29]?
**A.** Its viability, T/C is 0.71%.

**Q.** And the viability, T/C [30]?
**A.** The viability, T/C was 4%.

**Q.** And the viability, T/C [31]?
**A.** The viability, T/C was 0.41%.

**Q.** And the viability, T/C [32]?
**A.** The viability, T/C was 0.24%.

**Q.** What about the viability, T/C [33] of the same molecule?
**A.** The viability, T/C was 0.82%.

**Q.** And the viability, T/C [34]?
**A.** Its viability, T/C is 0.42%.

**Q.** What about the viability, T/C [35] of the same molecule?
**A.** The viability, T/C was 2.08%.

**Q.** And the viability, T/C [36]?
**A.** Its viability, T/C is 2.09%.

Source: PubChem BioAssay AID2060615 (Molecular Pharmacology Branch, DTP, NCI, 2025)
